The test has as its system Dark skinned Yucatan microswine. Briefly: Induced pigmentation in vivo, topical treatment, Fontana-Mason stained skin sections scored for pigment deposition. The note with it: average of all sites of responsive swine; topical twice a day, five days/week, eight or nine weeks; positive controls 1% (W/V), pigments 1% or 5% (W/V), peptides 250 µM or 500µM, combinations with pigments at 1%(W/V). The method, then: Compositions were tested for their ability to induce in vivo pigmentation in skin cells in the following experiment. Dark skinned Yucatan microswine (Charles River, Portland, ME) were housed in appropriately sized cages in an environmentally controlled room with a 12-hour light - 12-hour dark photoperiod and supplied with food and water ad libitum. Animal care was based on the "Guide for the Care and Use of Laboratory Animals", NIH Publication No. 85-23. Twenty µl of test peptides were applied topically, twice a day, five days/week, for eight or nine weeks, on the dorsum of the swine. Treatments of individual swine were always arranged in a head to tail order on one side, and in a tail to head order on the other side of the animal. Biopsies were taken using standard techniques.
F&M staining identifies silver nitrate reducing molecules. In skin, this non-specific stain identifies primarily melanin. At least three sections per biopsy were processed. Each experiment was repeated at least three times.
Swine were treated with either: the known skin darkening agent forskolin (Sigma) or with a Coleus forskoli extract (ATZ Naturals, Englewood Cliffs, NJ) which contains forskolin, as a positive control at 1% (W/V); pigments at 1% or 5% (W/V); peptides at 250 µM or 500µM; and combinations of such peptides at 250 µM or 500µM with pigments at 1%(W/V). […]

On to `C=C[C@@]1(C)CC(=O)[C@]2(O)[C@@]3(C)[C@@H](O)CCC(C)(C)[C@@H]3[C@H](O)[C@H](OC(C)=O)[C@@]2(C)O1` [Forskolin], for which the Score was determined as 1. Take “H2-Val-Gly-Val-Ala-Pro-Gly-NH2 (H-VGVAPG-NH2) [Peptide 1]”: the Score is recorded as 1.

The values above are taken from patent EP1507508B1, “COMPOSITION CONTAINING A PEPTIDE AND A PIGMENT AND THE USE THEREOF IN DARKENING THE SKIN” (JOHNSON & JOHNSON CONSUMER COMPANIES, INC., priority 2002, dated 2003).
